Target: T1, Cyclic GMP-AMP synthase [147-522] (Homo sapiens, UniProt Q8N884)
T1 construct: 147-522
Experiment: Quantification of cGAS Protein Inhibition
Protocol: The enzyme solution was transferred into the reagent buffer to give a final concentration of 30 nM. […] The reaction plates were then centrifuged at 1000 rpm for 1 minute and incubated at room temperature for 1 h. […] The concentration of cGAMP was measured on a LC-MS/MS system consisting of a THERMO Dionex Ultimate LC system with a high pressure pump, an autosampler, a column heating compartment (Reinach, Switzerland) and a SCIEX Triple Quad 5500 (Framingham, MA, USA) mass spectrometer for detection. The sample plates were centrifuged for 10 minutes at 2000 rpm. Up to three plates were placed in the autosampler for injection. […] An isocratic flow of 1.0 mL/min solvent (60% ACN, 8 mM ammonium acetate, 5 mM ammonium hydroxide, 0.04% acetic acid) was applied and sprayed into the ion source of the mass spectrometers. The MS parameters were optimized based on the properties of the compounds to be detected and run in positive multi-reaction mode (MRM) based on the mass transitions. LC and MS parameters were also optimized to allow for a sample-to-sample measuring time of approximately 75 sec and a run time of 8 hours per 384-well plate. All data were analyzed with Excel; and the dose response curves were generated using the auto fitting function of XLfit.

T1 sequence (Q8N884 147-522): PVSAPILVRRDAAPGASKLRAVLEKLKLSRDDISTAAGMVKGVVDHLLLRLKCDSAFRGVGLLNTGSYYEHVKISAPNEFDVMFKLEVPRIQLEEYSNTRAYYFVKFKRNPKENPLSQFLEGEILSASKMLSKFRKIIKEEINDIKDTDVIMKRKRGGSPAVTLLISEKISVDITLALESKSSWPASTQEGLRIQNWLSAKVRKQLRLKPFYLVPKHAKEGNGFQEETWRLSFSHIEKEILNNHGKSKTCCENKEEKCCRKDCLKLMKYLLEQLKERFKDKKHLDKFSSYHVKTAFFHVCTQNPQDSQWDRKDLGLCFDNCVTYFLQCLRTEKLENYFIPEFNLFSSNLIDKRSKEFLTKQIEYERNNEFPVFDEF

How did the IC50 turn out when `COc1nc2c(-n3ccnc3)c(-c3nnc(C(O)C(F)F)[nH]3)n(C)c2cc1Cl` (stereo unspecified) [US20240051954, Example 21] was run?
Its IC50 is 0.121 µM.

— BindingDB's records for patent US20240051954 (Novartis, 2024)
